Test [1] has as its system solid tumours. The conditions noted are these: cited from earlier work.
The subject of test [2] is colorectal tumors. Conditions: cited from earlier work.
Test [3] deals with solid tumors of stage IV metastatic colorectal cancer. In words: Treatment of patients diagnosed with stage IV metastatic colorectal cancer with bevacizumab, oxaliplatin, 5-FU and 6R-MTHF; CT measurement of lesions, RECIST 1.1. The class given is in vivo, human.
Description: The ORR may be calculated as follows: ORR=sum of partial responses plus complete responses as per RECIST 1.1 (a set of published rules that define when tumours in cancer patients progress during treatments)([Eisenhauer E A, Therasse P, Bogaerts J, Schwartz L H, Sargent D, Ford R, et al. New response evaluation criteria in solid tumours: revised RECIST guideline (version 1.1). Eur J Cancer. 2009 January; 45(2):228-47; incorporated by reference in its entirety]. As defined herein, a “complete response (CR)” means the disappearance of all target lesions. Any pathological lymph nodes (whether target or non-target) must have reduction in short axis to <10 mm. As used herein, a “partial response (PR)” means at least a 30% decrease in the sum of diameters of target lesions, taking as reference the baseline sum diameters.As used herein, “progressive disease (PD)” means at least a 20% increase in the sum of diameters of target lesions, taking as reference the smallest sum on study (this includes the baseline sum if that is the smallest on study). […] The appearance of one or more new lesions is also considered progression.
(§1) Bevacizumab was administered at a dose of 5 mg/kg by intravenous infusion over 30 to 90 minutes. Following administration of bevacizumab, oxaliplatin was administered at a dose of 85 mg/m^2 by intravenous infusion between 15 and 120 minutes. Following oxaliplatin administration, 5-fluorouracil (5-FU) at a dose of 400 mg/m^2 was administered by intravenous bolus within 5 minutes. Thirty minutes after administration of the 5-FU intravenous bolus, 6R-MTHF at a dose of 60 mg/m^2 was administered by intravenous bolus (completed within 3 minutes). About 5 minutes after completion of the 6R-MTHF intravenous bolus administration, an intravenous infusion of 5-FU at a dose of 2,400 mg/m^2 was initiated. The infusion was paused to administer an intravenous bolus of 6R-MTHF at a dose of 60 mg/m^2 (completed within 3 minutes). The 5-FU infusion was maintained for 46 hours.
as §1, §1

Test [4] deals with colorectal cancer. Conditions: Phase IIb study; cited from earlier work.
Test [5] concerns metastatic colorectal cancer. Conditions: Phase II trial, previously untreated metastatic colorectal cancer; cited from earlier work.
Test [6] deals with pancreas cancer. The conditions noted are these: CoFactor combined with 5-FU, phase I/II; cited from earlier work.

Structures can show the parent of a compound that is named as a salt. Where two headings read alike, the source gives them in different places.

Regarding `O=c1[nH]cc(F)c(=O)[nH]1` [5-FU, 5-fluorouracil], the overall response rate in test [1] (5-FU alone) is reported as 10-15%. In addition, the response rate entry in test [2] (5-FU given as a monotherapy) is “around 10%”.
For `Nc1nc2c(c(=O)[nH]1)N1CN(c3ccc(C(=O)N[C@@H](CCC(=O)O)C(=O)O)cc3)C[C@H]1CN2` [6R-MTHF, [6R]-5,10-methylene tetrahydrofolate], the tumor response entry is “stable disease” in test [3] (Example 2 patient, second-line, 8-week treatment period); “partial response and no progression” in test [3] (Example 3 patient, second-line, after 8 weeks); “partial response and no progression” in test [3] (Example 3 patient, second-line, after 16 weeks); “no progression” in test [3] (Example 3 patient, second-line, between 16 and 24 weeks); “stable disease” in test [3] (Example 4 patient, second-line, 8-week treatment period); “no progression” in test [3] (Example 4 patient, second-line, through 24 weeks). The tumor response entry in test [3] (Example 6 patient, second-line, 8-week treatment period) is “stable disease”; in test [3] (Example 6 patient, second-line, through 16 weeks) it was “stable disease and no progression”; in test [3] (Example 7 patient, second-line, 8-week treatment period), “stable disease and no progression”; in test [3] (Example 7 patient, second-line, through 16 weeks) it was “no progression”; in test [3] (Example 8 patient, first-line, 8-week treatment period), “stable disease and no progression”; in test [3] (Example 8 patient, first-line, through 16 weeks), “stable disease and no progression”. The tumor response entry is “stable disease and no progression” in test [3] (Example 9 patient, second-line, 8-week treatment period); “stable disease and no progression” in test [3] (Example 9 patient, second-line, 16-week treatment period); “stable disease and no progression” in test [3] (Example 10 patient, second-line, 8-week treatment period); “stable disease and no progression” in test [3] (Example 10 patient, second-line, 16-week treatment period); “stable disease” in test [3] (Example 12 patient, second-line, 8-week treatment period). For the same compound, the “size of lesions (CT)” value in test [3] (Example 2 patient, second-line, baseline 25, 13 and 12 mm (abdomen), after 8 weeks (CT at 10 weeks plus 2 days)) was “unchanged in size”. The size of lesion entry in test [3] (Example 3 patient, second-line, 9 mm lesion, between 16 and 24 weeks) is recorded as “unchanged in size”; in test [3] (Example 4 patient, second-line, baseline 35 mm (liver), after 8 weeks) it was “unchanged in size”; in test [3] (Example 4 patient, second-line, baseline 35 mm (liver), after 16 and 24 weeks) it was “unchanged in size”; in test [3] (Example 5 patient, second-line, baseline 80 mm (liver), after 8 weeks), 96 mm; in test [3] (Example 6 patient, second-line, 41 mm lesion (baseline 44 mm), after 16 weeks) it was “unchanged in size”; in test [3] (Example 6 patient, second-line, baseline 44 mm (liver), after 8 weeks), 41 mm. Further, the size of lesion result in test [3] (Example 7 patient, second-line, baseline 22 mm (liver), after 8 weeks) is “unchanged in size”; in test [3] (Example 7 patient, second-line, baseline 22 mm (liver), after additional four cycles (8 weeks)), “unchanged in size”; in test [3] (Example 8 patient, first-line, baseline 72 mm (liver), after 8 weeks) it was 59 mm; in test [3] (Example 8 patient, first-line, baseline 72 mm, 59 mm at 8 weeks, after 16 weeks) it was 53 mm; in test [3] (Example 9 patient, second-line, baseline 57 mm (abdomen), after 8 weeks) it was 56 mm; in test [3] (Example 9 patient, second-line, baseline 57 mm, 56 mm at 8 weeks, after 16 weeks), 57 mm. Further, the size of lesion entry is on record as “unchanged in size” in test [3] (Example 10 patient, second-line, 188 mm lesion (baseline 250 mm), after 16 weeks); 188 mm in test [3] (Example 10 patient, second-line, baseline 250 mm (abdomen), after 8 weeks); 89 mm in test [3] (Example 11 patient, first-line, baseline 77 mm (liver), after 8 weeks); 30 mm in test [3] (Example 12 patient, second-line, baseline 26 mm (lung), after 8 weeks). For the same compound, the “fate of 10 mm lesion” value in test [3] (Example 3 patient, second-line, baseline 10 and 16 mm (liver and lung), 8 weeks) was “disappearance”. For the same compound, the “size of lesion (CT-verified)” value came out at 13 mm in test [3] (Example 3 patient, second-line, baseline 16 mm lesion, 8 weeks) and 9 mm in test [3] (Example 3 patient, second-line, lesion 16 mm at baseline, 13 mm at 8 weeks, after 16 weeks).
With `Nc1nc(=O)c2c([nH]1)NCC1CN(c3ccc(C(=O)N[C@@H](CCC(=O)[O-])C(=O)[O-])cc3)CN21.[Ca+2]` (stereo partly drawn) [CoFactor, (dl)-5,10,-methylenepteroyl-monoglutamate calcium salt], the “efficacy and safety versus leucovorin arm” value in test [4] is given as “no significant differences”. Moreover, the overall response rate in test [5] is listed as 35%. In test [6], the “clinical benefit, defined as stable disease or tumor response, proportion of patients” value is 40%.
In the case of `Nc1nc2c(c(=O)[nH]1)N(C=O)C(CNc1ccc(C(=O)N[C@@H](CCC(=O)O)C(=O)O)cc1)CN2` (some centres unmarked) [LV, calcium salt of 5-formyl-5,6,7,8-tetrahydrofolic acid], in test [1] (LV added to 5-FU), the overall response rate entry was “over 20%”. The response rate in test [2] (LV added to 5-FU) is given as 21%.

The values are drawn from patent US20230116137A1, “METHODS FOR TREATING COLORECTAL AND METASTATIC COLORECTAL CANCERS” (Isofol Medical AB, priority 2017, published 2023).
